Experimental data: doi:10.1101/2025.01.23.634444v1, “The histidine kinase VraS orchestrates the cell-wall stress response in Staphylococcus aureus via its direct interaction with glycopeptides and β-lactams” (biorxiv, 2025)

How the values were obtained:
[1] = target: T1, VraS (VraS-H6x) (Staphylococcus aureus, UniProt A0A0H2XJC3); experiment: biochemical
[2] = target: T1, VraS (VraS-H6x); experiment: saturation transfer difference NMR; type: binding; parameters: full-length, C-terminal His6 tag kept, codon-optimised synthetic gene, pET24a(+), expressed in E. coli BL21 Star (DE3) membranes, purified in DDM, reconstituted in liposomes; 347 residues, 40,867 Da tagged; dimer in DDM; details: 20 µM VraS, 400 µM ampicillin, sodium phosphate pH 7.4, 280 mM NaCl, 6 mM KCl, 0.01% DDM, 10% D2O

T1 sequence (A0A0H2XJC3 entry or part of it): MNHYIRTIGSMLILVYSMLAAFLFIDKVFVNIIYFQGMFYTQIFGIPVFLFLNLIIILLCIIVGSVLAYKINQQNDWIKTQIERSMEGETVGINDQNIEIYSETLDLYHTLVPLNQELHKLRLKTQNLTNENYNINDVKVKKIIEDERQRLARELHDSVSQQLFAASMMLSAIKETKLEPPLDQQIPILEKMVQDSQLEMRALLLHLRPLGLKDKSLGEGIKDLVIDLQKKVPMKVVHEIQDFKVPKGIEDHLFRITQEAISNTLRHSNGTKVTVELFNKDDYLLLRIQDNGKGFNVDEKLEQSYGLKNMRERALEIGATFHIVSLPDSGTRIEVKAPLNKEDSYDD

Compound	IC50 [1]	STD [2]
CN[C@H](CC(C)C)C(=O)N[C@H]1C(=O)N[C@@H](CC(N)=O)C(=O)N[C@H]2C(=O)N[C@H]3C(=O)N[C@H](C(=O)N[C@H](C(=O)O)c4cc(O)cc(O)c4-c4cc3ccc4O)[C@H](O)c3ccc(c(Cl)c3)Oc3cc2cc(c3O[C@@H]2O[C@H](CO)[C@@H](O)[C@H](O)[C@H]2O[C@H]2C[C@](C)(N)[C@H](O)[C@H](C)O2)Oc2ccc(cc2Cl)[C@H]1O [vancomycin]	1600 ± 300 µM	–
CC1(C)S[C@@H]2[C@H](NC(=O)[C@H](N)c3ccccc3)C(=O)N2[C@H]1C(=O)O [ampicillin]	–	the difference spectrum demonstrated the interaction of ampicillin with VraS
